Source: patent US10995068B2, “Synthetic sphingolipid-like molecules, drugs, methods of their synthesis and methods of treatment” (The Regents of the University of California, priority 2015, dated 2021)
Values joined by “and” are separate entries in the source; they are usually repeats but may differ in a detail not shown here. Equal values may be shown once.

Experiments:
CD98 (4F2hc, SLC3A2) = assay: Surface CD98 nutrient transporter down-regulation by flow cytometry; type: cell-based, murine; settings: FL5.12 cells, surface CD98 at 3 h, flow cytometry, mean ± SEM, n ≥3
From the text: (§1) In an exemplified study, nutrient transporter down-regulation was monitored by quantifying surface levels of the amino acid transporter-associated protein, CD98, by flow cytometry. Vacuolation was scored in a range from 0 to […], as determined by a vacuolation assay described in greater detail in the Materials and Methods section below.
Cell culture studies: FL5.12 cells (murine hematopoetic cells originally obtained from Craig Thompson, Memorial Sloan Kettering Cancer Center) were maintained at 0.1-0.5 million/ml in RPMI 1640 (Mediatech) supplemented with 10% fetal calf serum (FCS, Sigma-Aldrich), 10 mM Hepes (Mediatech), 500 pg/ml recombinant IL-3 (cat #575502, Biolegend), 55 μM β-mercaptoethanol (Sigma-Aldrich), 2 mM L-glutamine (Mediatech), and antibiotics. Cells were screened for Mycoplasma every 3 months using the Look-Out Mycoplasma PCR Detection kit (cat #MP0035, Sigma).
Nutrient transporter expression: Surface CD98 (4F2hc, SLC3A2) expression was measured at 3 h using phycoerythrin (PE)-conjugated rat anti-mouse CD98 antibody (Biolegend, cat #128208); analysis was restricted to viable cells. PE conjugated Rat IgG2a, k (cat #400508, Biolegend) was used as an isotype control. For staining, 200,000 cells were pelleted, re-suspended in 100 μl FACS block (PBS with 10% FCS and 0.05% NaN3) containing 0.25 μL anti-CD98 antibody, incubated on ice for 30 min, washed twice with 1 ml FACS wash (PBS containing 2% FCS and 0.05% NaN3), and analyzed on a BD LSR II flow cytometer. Data was processed with FlowJo software (Treestar).

FL5.12 cells = assay: Vacuolation assay; type: cell-based, murine; design: key to Vacuolation score: 0-100 score: (3×%cat3+2×%cat2+1×%cat1)/3; cells graded 0-3 for vacuoles; settings: FL5.12 cells, 3 h in 2.5 μM compound except where otherwise indicated, mean ± SEM, n ≥3
Method: as §1
Vacuolation assay: Cells were evaluated at 100× using brightfield microscopy and a Nikon TE2000-S fluorescence microscope equipped with DIC filters. Vacuolation was quantified after a 3 h incubation period in 2.5 μM compound except where otherwise indicated. To calculate a vacuolation score, vacuolation severity in at least 15 individual cells/experiment was assessed qualitatively. Scores were assigned to individual cells as follows: 0=no vacuoles, 1=very small vacuoles, 2=multiple well-defined vacuoles, 3=multiple large vacuoles. To calculate the vacuolation score associated with a compound, the following formula was used: vacuolation score=[(3×% cells in category 3)+(2×% cells in category 2)+(1×% cells in category 1)]/3.
The score is divided by 3 so that a compound with 100% of its cells in category 3 would have a vacuolation score of 100. Three independent experiments were conducted and the vacuolation scores averaged to generate a mean+/−SEM. All cells were scored by one lab member after confirming that a blinded individual scored 5 compounds with similar results.

S1P receptor 4 = biological target: T1, S1P receptor 4 (Homo sapiens, UniProt O95977); assay: S1P receptor activation in CHO cells, S1P4; type: cell-based; settings: CHO cells over-expressing human S1P4
T1 construct: expressed in transfected cells
T1 sequence (O95977 1-384): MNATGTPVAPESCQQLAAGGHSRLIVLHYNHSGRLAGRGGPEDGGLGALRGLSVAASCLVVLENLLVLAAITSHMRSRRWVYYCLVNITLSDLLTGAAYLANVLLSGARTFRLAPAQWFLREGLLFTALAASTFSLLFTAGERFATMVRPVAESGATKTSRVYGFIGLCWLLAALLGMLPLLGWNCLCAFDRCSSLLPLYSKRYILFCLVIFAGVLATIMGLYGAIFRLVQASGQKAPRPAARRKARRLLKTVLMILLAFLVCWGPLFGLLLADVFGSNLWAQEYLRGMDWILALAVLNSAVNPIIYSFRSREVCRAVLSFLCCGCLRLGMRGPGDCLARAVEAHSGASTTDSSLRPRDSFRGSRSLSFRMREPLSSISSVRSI
From the text: Phosphorylation may have effects on S1P receptor activity that could cause bradycardia. Bradycardia, the dose-limiting toxicity that prevents the use of FTY720 in cancer patients, stems from FTY720-P's actions on S1P receptors 1 and 3. (Camm, J., et al. (2014) Am. Heart J. 168, 632-644; Cohen, J. A., Chun, J. (2011) Ann. Neurol. 69, 759-777; Sanna, M. G., et al. (2004) J. Biol. Chem. 279, 13839-13848; the disclosures of which are incorporated herein by reference). Phosphorylation by sphingosine kinase may make compounds competent to activate S1P receptors. FTY720, for example, when phosphorylated is known to activate S1P receptors 1 and 3. Because compound 5 could be phosphorylated, the activity of compound 5 and its phosphate 5-P (FIG. 28) on S1P receptors was evaluated (FIG. 32).
51P1-5 activation: Chinese hamster ovary (CHO) cells stably over-expressing the different human 51P receptor subtypes are used. S1P1, S1P4 and S1P5 overexpressing CHO cells are cultured in medium containing alpha-MEM supplemented with 10% FBS, 50 μg/ml gentamycin and 0.5 mg/ml G418. S1P2 and S1P3 overexpressing CHO cells are cultured in RPMI containing 10% FBS, 50 μg/ml gentamycin and 0.5 mg/ml G418. Prior to stimulation, cells are rendered serum-free for 24 h. Stimulation is carried out for 10 min in serum-free DMEM containing 0.1 mg/ml of fatty-acid free BSA in the absence or presence of the various compounds or 51P. Protein lysates are prepared using a buffer containing (50 mM Tris pH 7.4, 150 mM NaCl, 10% glycerol, 1% Triton X-100, 2 mM EDTA, 2 mM EGTA, 40 mM β-glycerophosphate, 50 mM sodium fluoride, 10 mM sodium pyrophosphate, 2 mM dithiothreitol, 0.2 mM sodium orthovanadate). Cells are homogenized by one 5 sec burst in a MSE Ultrasonic Disintegrator, centrifuged and taken for protein determination. Equal amounts of protein are separated by SDS-PAGE (10% polyacrylamide gel), transferred to nitrocellulose membranes and subjected to Western blot analysis. Bands were stained using IRDye® secondary antibodies and visualized by the LICOR Odyssey® Fc Imaging system. Antibodies against phospho-Thr202/Tyr204-p42/p44-MAPK and phospho-Ser PKC substrate are from Cell Signaling, Frankfurt am Main, Germany. Polyclonal antisera against total p42 and total p44 were generated and characterized as previously described. (Huwiler, A.; Pfeilschifter, J. Br. J. Pharmacol. 1994, 113, 1455-1463; disclosure of which is incorporated herein by reference).

| Compound | % CD98 down-regulation (CD98 (4F2hc, SLC3A2); listed as 104) | Vacuolation score (FL5.12 cells; listed as 104) | activation of S1P receptor 4 (S1P receptor 4) | % CD98 down-regulation (CD98 (4F2hc, SLC3A2)) | Vacuolation score (FL5.12 cells) |
| --- | --- | --- | --- | --- | --- |
| CCCCCCCCc1ccc([C@H]2CCN[C@@H]2CO)cc1.Cl [Compound 5, (2S,3R)-2-(hydroxymethyl)-3-(4-octylphenyl)Pyrrolidinium chloride] | 54% and 54 ± 1% | 81 and 81 ± 3 | failed to activate |  |  |
| CCCCCCCCc1ccc([C@@H]2CCN[C@H]2CO)cc1.Cl [Compound 6] |  |  | failed to activate |  |  |
| CCCCCCCCc1ccc(CCC(N)(CO)CO)cc1.Cl [FTY720, 2-Amino-2-[2-(4-octylphenyl)ethyl]propane 1,3-diol hydrochloride, reference compound] |  |  |  | 68 ± 3% | 82 ± 4 |
